# Test results taken from patent US5324747A, “N-substituted anilines, inhibitors of phospholipases A2” (Hoffmann-La Roche Inc., priority 1992, dated 1994).
# Assays:
# PLA2 Rat Paw Edema = experiment: Phospholipase A2 Rat Paw Edema; type: in vivo, Lewis rats; details: Rattus norvegicus; 2 hr; 30 mg/kg; read-out: % Inhib of PLA2 Rat Paw Edema 2 hr (30 mg/kg)
# Method: Phospholipase A2 Rat Paw Edema
# Representation compounds of the invention were tested in rats to determine their ability to inhibit the acute inflammatory response induced by the injection of snake venom phospholipase A2. Test compounds are administered intraperitoneally or orally to groups of seven Lewis rats (≈200 gm) 1 hr prior to phospholipase A2 administration. The test compounds are dissolved in dimethyl sulfoxide for intraperitoneal administration and dissolved or suspended in Labrafil M-1944CS for oral administration. At 0 hr, 5 ug (10 units) of purified phospholipase A2 from Naja naja venom (Sigma Chem. Co.) dissolved in 0.1 mL of pyrogen free saline is injected subplantarly into the right hind paw to elicit the inflammatory response. The volume (in mL) of the right hind paw is measured by immersion of the paw to the level of the lateral malleolus in an aqueous plethysmometer immediately prior to the injection of phospholipase A2 and then at 0.5, 2 and 4 hr after phospholipase A2 injection. The paw edema is calculated by subtracting the zero time reading from the readings taken after injection. The percent change of the edema volume from the vehicle treated control is calculated to determine the activity of the test compound. Statistical analysis of the mean paw edema values of the control versus the treated groups is performed using Student's t-test. Significance of changes from mean value for vehicle-treated animals (*p<0.05, **p<0.01, ***p<0.001, ns/not significant).
# HSF-PLA2 = biological target: T1, HSF-PLA2 (Homo sapiens, UniProt P14555); experiment: Assay for Inhibition of HSF-PLA2 In Vitro; type: biochemical; details: for IC50: read-out: Inhib of HSF-PLA2 IC50; for inhibition at 10 µM / inhibition at 1 µM: read-out: Inhib of HSF-PLA2, % inhibition
# T1 construct: extracellular enzyme obtained from human synovial fluid (HSF-PLA2); from tissue; host or cells: pooled human synovial fluid, added at 0.1% (v/v)
# T1 sequence (P14555 21-144): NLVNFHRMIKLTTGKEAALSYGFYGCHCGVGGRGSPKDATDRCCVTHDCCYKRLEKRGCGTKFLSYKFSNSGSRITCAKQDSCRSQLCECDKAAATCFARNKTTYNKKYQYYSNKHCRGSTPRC
# Method: Assay for Inhibition of HSF-PLA2 In Vitro
# The PLA2 used in this test is the extracellular enzyme obtained from human synovial fluid (HSF-PLA2).
# The optimal conditions which were developed for the assay of HSF-PLA2 inhibitors are summarized as follows. […] The reaction was initiated by the addition of HSF-PLA2 and duplicate samples of the mixture were incubated in 13×100 mm glass tubes with shaking for 30 minutes at 37° C. […] The extraction of lipids from the stopped reaction mixture was conducted by the further additions of […] of chloroform and 1 ml of water with mixing. After centrifuging, the lower chloroform phase was transferred to smaller glass tubes and the solvent was evaporated to dryness with a nitrogen stream. The extracted lipid residue was redissolved in 50 μl of a solution containing carrier oleic acid (0.2 mg/ml) of chloroform-methanol [9 to 1, v/v]). The whole lipid extract was applied to a preactivated (30 minutes at 110° C.) silica gel-impregnated glass fiber thin layer chromatography sheet (ITLC type SG sheet from Gelman Sciences, Inc., Ann Arbor, Mich.) using hexane-acetic acid (100 to 1, v/v) as the developing solvent. This TLC system rapidly (6 minutes) resolved the enzymatically released product, ^14 C-oleic acid, from the unreacted ^14 C-phospholipid substrate. The unsaturated lipids were located on the chromatogram by a brief exposure to iodine vapor. […] A control incubation of substrate in the absence of HSF-PLA2 was performed in each experiment.
# [1] = system: Croton Oil Mouse Ear Edema; experiment: Croton Oil Mouse Ear Edema Test; type: in vivo, CD-1 mice; details: topical, coapplied, 6 hours
# Method: Twenty five μl of a 1% croton oil solution [dissolved in a mixture of pyridine/water/diethyl ether at a ratio of 5/20/75 (croton oil vehicle)] are applied to the outer side of the right ear of 3-4 week old made CD-1 mice (8 animals per group). The test compounds are dissolved directly in the 1% croton oil solution at various concentrations and coapplied. Control animals receive 25 μl of croton oil vehicle on the right ear. Biopsy punches are removed at 6 hours from the right ear of the animals using a 6 mm skin trephine (Roboz, Washington, D.C.) and the wet weight of the ear punches is determined. The weight of the biopsy punches is a measure of ear inflammation, primarily edema. The data are expressed as percent inhibition relative to control groups.
SMILES,inhibition in vivo at 30 mg/kg (PLA2 Rat Paw Edema) [%],IC50 (HSF-PLA2) [nM],% Inhib of Croton Oil Mouse Ear Edema (1 mg) [1] [%],inhibition at 10 µM (HSF-PLA2) [%],inhibition at 1 µM (HSF-PLA2) [%]
"O=C(O)CN(CC(=O)O)c1cc(OCCCc2ccccc2)cc(OCCCc2ccccc2)c1 [Example 6g, N-(carboxymethyl)-N-[3,5-bis(3-phenylpropoxy)phenyl]glycine]",26,1300,,,
"COC(=O)CCCCCCCCCCOc1cc(OCCCCCCCCCCC(=O)OC)cc(N(CC(=O)O)CC(=O)O)c1 [Example 6j, N-(carboxymethyl)-N-[3,5-bis[(11-methoxy-11-oxoundecyl)oxy]phenyl]glycine]",0,300,66,,
"O=C(O)CCCCCCCCCCOc1cc(OCCCCCCCCCCC(=O)O)cc(N(CC(=O)O)CC(=O)O)c1 [Example 6k, N-(carboxymethyl)-N-[3,5-bis[(11-hydroxy-11-oxoundecyl)oxy]phenyl]glycine]",0,,16,35,
O=C(O)CN(CC(=O)O)c1cc(OCCCOc2ccccc2-c2ccccc2)cc(OCCCOc2ccccc2-c2ccccc2)c1 [Example 6l],0,420,30,,
"CCCCCCCCCCCCCCNC(=O)c1cc(C(=O)NCCCCCCCCCCCCCC)cc(N(CC(=O)O)CC(=O)O)c1 [Example 6q, N-(carboxymethyl)-N-[3,5-bis[(tetradecylamino)carbonyl]phenyl]glycine]",0,300,,,
"CCCCCCCCCCOC(=O)c1cc(C(=O)OCCCCCCCCCC)cc(N(CC(=O)O)CC(=O)O)c1 [Example 6v, N-(carboxymethyl)-N-[3,5-bis[(decyloxy)carbonyl]phenyl]glycine]",9,,80,,73
"CCCCCCCCCCNC(=O)c1cc(NCC(=O)O)cc(C(=O)NCCCCCCCCCC)c1 [Example 12, N-[3,5-Bis[(decylamino)carbonyl]phenyl]glycine]",34,5200,70,,
"CCCCCCCCCCCCCCOC(=O)c1cc(C(=O)OCCCCCCCCCCCCCC)cc(N(CC(=O)O)CC(=O)O)c1 [Example 25, N-(Carboxymethyl)-N-[3,5-bis[(tetradecyloxy)carbonyl]phenyl]glycine]",17,,62,,48
"CCCCCCCCCCOc1cc(OCCCCCCCCCC)cc(N2CC(=O)OC(=O)C2)c1 [Example 30, 4-[3,5-bis(decyloxy)phenyl]2,6-morpholinedione]",91,470,63,,
"CCCCCCCCCCOc1cc(OCCCCCCCCCC)cc(N(CC(=O)O)CC(=O)OC)c1 [Example 31, N-(2-Methoxy-2-oxoethyl)-N-[3,5-bis(decyloxy)phenyl]glycine]",21,,50,,
"CCCCCCCCCCOc1cc(OCCCCCCCCCC)cc(N(CC(N)=O)CC(=O)O)c1.N [Example 32, N-(Carbamoylmethyl)-N-[3,5-bis(decyloxy)phenyl]glycine ammonium salt]",23,,54,,48
"CCCCCCCCCCOc1cc(OCCCCCCCCCC)cc(N(CC(=O)O)CC(=O)OCCN(CC)CC)c1.Cl [Example 33, N-(2-Diethylaminoethoxy-2-oxoethyl)-N-[3,5-bis(decyloxy)phenyl]glycine monohydrochloride salt]",15,,25,,-5
CCCCCCCCCCCCCCCCCC(=O)Oc1cccc(N(CC(=O)O)CC(=O)O)c1 [Example 36b],0,200,61,,
"CCCCCCCCCCCCCCCc1cccc(OCCCOc2cccc(N(CC(=O)O)CC(=O)O)c2)c1 [Example 36i, N-(carboxymethyl)-N-[3-{3-(3-pentadecylphenoxy)propoxy]phenyl]glycine]",7,400,,,
"CCCCc1ccc(N(CC(=O)O)CC(=O)O)cc1 [Example 39b, N-(carboxymethyl)-N-(4-butylphenyl)glycine]",-9,264000,,,
CCCCCCCCCCCCCCCCCC(=O)Nc1cccc(N(CC(=O)O)CC(=O)O)c1 [Example 46],44,,35,,
CCCCCCCCCCCCCCCCCCOc1cc(OCCCOc2ccc(C(=O)O)cc2)cc(N(CC(=O)O)CC(=O)O)c1 [Example 58p],,600,0,,
"CCCCCCCCCCOc1cc(C(=O)OC)cc(N(CC(=O)O)CC(=O)O)c1 [Example 69c, N-(carboxymethyl)-N-[(3-methoxycarbonyl)-5-(decyloxy)phenyl]glycine]",1,,78,,
CCCCCCCCCCCCCCCCCCOc1cc(NC(C)=O)cc(N(CC(=O)O)CC(=O)O)c1 [Example 98],51,,,,98
"CCCCCCCCCCCCCC(=O)Oc1ccc(N(CC(=O)O)CC(=O)O)cc1OC(=O)CCCCCCCCCCCCC [Example 119b, N-(carboxymethyl)-N-[3,4-bis[(1-oxotetradecyl)oxy]phenyl]glycine]",,,75,,80
"CCCCCCCCCCCCCCCCCCNC(=O)Oc1ccc(N(CC(=O)O)CC(=O)O)cc1OC(=O)NCCCCCCCCCCCCCCCCCC [Example 119d, N-(carboxymethyl)-N-[3,4-bis[[(octadecylamino)carbonyl]oxy]phenyl]glycine]",,,14,,19
"CCCCCCCCCCCCCCNC(=O)Oc1ccc(N(CC(=O)O)CC(=O)O)cc1OC(=O)NCCCCCCCCCCCCCC [Example 119e, N-(carboxymethyl)-N-[3,4-bis[[(tetradecylamino)carbonyl]oxy]phenyl]glycine]",,,0,,33
"CCCCCCCCCCCCCCCCCCOc1cccc(NCC(=O)O)c1 [Example 125, N-[3-(Octadecyloxy)phenyl]glycine]",,,75,55,
CCCCCCCCCCOc1cc(OCCCCCCCCCC)cc(N(CC(=O)OCC(=O)N(CCO)CCO)CC(=O)OCC(=O)N(CCO)CCO)c1 [Example 131],18,,47,,
"CCCCCCCCCCOc1cc(OCCCCCCCCCC)cc(N(CC(=O)OCOC(C)=O)CC(=O)OCOC(C)=O)c1 [Example 132, N-[2-[(Acetyloxy)methoxy]-2-oxoethyl]-N-[3,5-bis(decyloxy)phenyl]glycine (acetyloxy)methyl ester]",,,36,,
"CCCCCCCCCCCCCCCCCCOc1cc(OCCOCCOCCOCCOC)cc(N(CC(=O)O)CC(=O)O)c1 [Example 156, N-(Carboxymethyl)-N-[3-[2-[2-(2-methoxyethoxy)ethoxy]ethoxy]ethoxy]-5-(octadecyloxy)phenyl glycine]",29,,,,100
"CCCCCCCCCCCCCCCCCCOc1cc(SC)cc(N(CC(=O)O)CC(=O)O)c1 [Example 166, N-(Carboxymethyl)-N-[3-(methylthio)-5-(octadecyloxy)phenyl]glycine]",31,,,,88
"CCCCCCCCCCCCCCCCCCOc1cc(N(CC(=O)O)CC(=O)O)cc([S+](C)[O-])c1 (centres unmarked) [Example 172, N-(Carboxymethyl)-N-[3-(methylsulfinyl)-5-(octadecyloxy)phenyl]glycine]",43,,,,39
